Measured values as given in article PMC5343580, “Antimicrobial peptide cWFW kills by combining lipid phase separation with autolysis” (Scientific Reports, 2017).
≈ marks a conversion by molar mass, not a printed value. Peptide text beside a SMILES is read from it.

Key:
B. subtilis 168 [1] = experiment: ATP measurement (luciferase-based luminescence); format: cell-based, Bacillus subtilis; conditions: 20 min incubation with 4, 8, and 12 μM; p ≥ 0.05; three independent replicates
Procedure: For the determination of cellular ATP levels samples were incubated with increasing concentration of cWFW for 20 min, followed by flash-freeze in liquid N2 in order to stop metabolism. Cell lysis and measurement of cell ATP levels were carried out using ATP bioluminescence Assay Kit HSII (Roche Applied Science) following manufacturer’s instructions using a BMG Fluostar Optima luminometer. The measured luminescence was calibrated with a serial dilution of ATP and triplicate samples were equalised against the optical density of the corresponding cell suspensions.

B. subtilis 168 [2] = experiment: Membrane potential measurement with DiSC3(5); format: cell-based, Bacillus subtilis
Procedure: Peptide-induced changes in membrane potential were measured using the voltage-sensitive fluorescent dye DiSC3(5). In aqueous solution DiSC3(5) emits strong fluorescence which is quenched upon accumulation in polarised cells. Upon depolarisation, DiSC3(5) is released from the cell resulting in an increased fluorescence due to de-quenching. B. subtilis 168 was grown at 37 °C to mid-log phase and diluted in LB medium to OD600 0.2. After centrifugation for 1 min at 16,500 rpm, the supernatant was removed and cells carefully resuspended in 1 ml fresh pre-warmed LB containing 0.1 mg/ml BSA. Subsequently, 140 μl aliquots of the cell suspension were transferred into a 96 well microtiter plate and allowed to settle. 10 μl of 15 μM DiSC3(5) in LB/15% DMSO were added to the wells to give a final DiSC3(5) concentration of 1 μM. Cellular accumulation (quenching) of DiSC3(5) was monitored until the signal had reached stable fluorescence levels. The peptides were added at desired concentrations at 5 μl/well, and the resulting changes in DiSC3(5) fluorescence were analysed for at least 20 min using a Fluostar Optima, BMG Labtech. Solutions, plates and instruments were warmed to 37 °C prior to use.

human cells = conditions: cited from earlier work
From the text: Antimicrobial peptides (AMPs) have been in the focus of research attention as a promising alternative for conventional antibiotics. The subclass of arginine- and tryptophan-rich peptides, with cationic charge and hydrophobic residues, provides the ideal structural prerequisite for interaction with the negatively charged bacterial membranes. To elucidate optimal structure-activity properties we screened a library of small synthetic peptides derived from the active motif of human antimicrobial peptide lactoferricin[3]. This analysis identified the cyclic hexapeptide cWFW (cyclo-RRRWFW) as ...

B. subtilis 168/DSM402 = format: cell-based, Bacillus subtilis
Procedure: (§1) B. subtilis 168/DSM402 was grown in chemically defined Belitzky minimal medium (BMM)[61]. Cultures were incubated at 37 °C under steady agitation. Minimal inhibitory concentrations (MIC) were determined as described previously. In growth experiments, exponentially growing cultures were exposed to a concentration range of peptide (Supplementary Figure 1)[62]. For physiological stress experiments, concentrations were chosen that led to 50% reduction of the growth rate. For proteomic profiling, as well as for all follow up experiments performed under the same growth conditions, 8 μM cWFW were used.

B. subtilis 168/DSM 402 [3] = experiment: Cytosolic proteome response profile (radioactive pulse-labelling, 2D-PAGE); format: cell-based, Bacillus subtilis; conditions: 8 μM cWFW, BMM
Procedure: To identify which cellular processes are disturbed by cWFW, we performed proteomic profiling of the Gram-positive model organism B. subtilis (Fig. 1). This technique combines radioactive pulse-labeling of newly synthesised proteins with two-dimensional SDS PAGE, thus providing insight into the acute antibiotic stress response.
as §1
Radioactive labelling of newly synthesised proteins and subsequent separation of the cytosolic proteome by two-dimensional polyacrylamide gel electrophoresis (2D-PAGE) was performed as previously described. Analytical gel images were analysed as described by Raatschen & Bandow[63] using Decodon Delta 2D 4.1 image analysis software. […] Protein spots were identified by MALDI-ToF/ToF or nanoUPLC-ESI-MS/MS using a Synapt G2-S HDMS mass spectrometer equipped with a lock spray source for electrospray ionisation and a ToF detector (Waters) as previously reported (Supplementary Tables 2 and 3)[62].

B. subtilis HB5343 = format: cell-based, Bacillus subtilis; conditions: psd::ery (PE-deficient), determined in LB
Procedure: (§2) Cells were inoculated from an overnight culture 1:100 and grown to mid-log phase (OD600 = 0.2–0.4). Unless stated otherwise, all experiments were carried out in LB medium at 37 °C. Cell numbers were determined using a Petroff-Hausser counting chamber: OD600 = 1 corresponds to 8.8 × 10^7 CFU/ml B. subtilis. Further information on strains, conditions of gene induction, and minimal inhibitory concentration are listed in Supplementary Table 4.
(§3) The minimal inhibitory concentration (MIC), which is defined as the lowest concentration able to inhibit growth of a microorganism in vitro[59], was analysed as described before. Briefly, bacteria were grown to mid-log phase and diluted in growth medium to give a final cell number of 5 × 10^5 cells/well in 96 well microtiter plates. A microdilution technique was applied where small volumes of peptide solutions were added in a serial dilution ranging from 100 to 0.05 μM. Cells were cultivated for 18 hours, 37 °C, 180 rpm, followed by photometrical detection of the optical density using a microplate reader (Tecan). Peptide concentrations were tested in triplicates in three independent experiments.

B. subtilis SDB206 = format: cell-based, Bacillus subtilis; conditions: ywiE::neo clsB::spc clsA::ery (CL-deficient), determined in LB
Procedure: as §2, §3

B. subtilis 168 [4] = format: cell-based, Bacillus subtilis; conditions: 168, 18 h
Procedure: as §2, §3

[5] = tested on: B. subtilis KS19 (ΔlytABCDEF); experiment: Cell lysis (optical density) in autolysin-deficient strain; format: cell-based, Bacillus subtilis; conditions: different concentrations, three replicate cultures
B. subtilis 168/DSM 402 [6] = experiment: Ion analysis (ICP-OES); format: cell-based, Bacillus subtilis; conditions: 15 min incubation with 8 μM, BMM, three independent measurements
Procedure: Only metal-free plastic ware and ultrapure water (Bernd Kraft) were used. All centrifugation steps were reduced to 2 min to reduce sample handling time. Cultures were adjusted to OD500 = 0.4 prior to antibiotic exposure to ensure equal cell count in each sample. Samples were prepared as described by Wenzel et al.[13]. Briefly, B. subtilis 168/DSM402 was grown in BMM until early exponential growth phase. For determination of ion concentrations, subcultures were incubated with 8 μM cWFW for 15 min, followed by cell harvest by centrifugation, washed twice in TE buffer (100 mM Tris-HCl, 1 mM EDTA, pH 7.5) and once in the same buffer without EDTA. The obtained cell pellets were digested in 65% nitric acid (Bernd Kraft) at 80 °C for 16 h. Prior to element analysis, samples were diluted with ultrapure water to a final nitric acid concentration of 10%. Element concentrations were determined by inductively-coupled plasma atomic emission spectroscopy using an iCAP* 6300 Duo View ICP Spectrometer (Thermo Fisher Scientific) as described before. […] Element concentrations were converted into intracellular ion concentrations based on the B. subtilis cellular volume, which was taken as 3 × 10^–9 μl based on average rod size determined by cryo-electron microscopy images by Matias and Beveridge[64][65].

B. subtilis 168 [7] = experiment: Membrane fluidity in cells (laurdan GP); format: cell-based, Bacillus subtilis
From the text: Membrane fluidity was investigated with the small hydrophobic fluorescent dye laurdan, which integrates into cellular membranes and detects changes related to the lipid packing of the surrounding bilayer. The resulting changes in the fluorescence emission spectrum can be detected either spectroscopically or with fluorescence microscopy. A mathematical quantification of the emission shift is achieved by calculation of the laurdan GP (generalised polarisation) with GP = (I435 − I490)⁄(I435 + I490).
B. subtilis 168 cells were grown to OD600 ~ 0.5 in LB/0.1% glucose and incubated with 10 μM laurdan for 5 min, shaking in the dark. […] The supernatant removed from the cells after the last washing step served as background for laurdan fluorescence not associated with cells. […] All samples were shaken briefly before fluorescence detection at 435 ± 5 nm and 490 ± 5 nm (upon excitation at 350 ± 10 nm) on a plate reader (Fluostar Optima, BMG Labtech). Laurdan fluorescence was monitored for at least 20 min. […] Laurdan fluorescence in liposomes was recorded using an LS 50B spectrofluorometer (Perkin-Elmer Corp., Germany). […] Laurdan fluorescence was detected separately at 435 and 500 nm, respectively. The average of three measurements for each preparation was calculated to determine corresponding laurdan GP values. […]

## N=C(N)NCCC[C@@H]1NC(=O)[C@H](CCCNC(=N)N)NC(=O)[C@H](Cc2c[nH]c3ccccc23)NC(=O)[C@H](Cc2ccccc2)NC(=O)[C@H](Cc2c[nH]c3ccccc23)NC(=O)[C@H](CCCNC(=N)N)NC1=O [cWFW, cyclo(RRRWFW)] (cyclo(FWRRRW))
B. subtilis 168 [1]
  change of ATP levels: No significant changes
B. subtilis 168 [2]; growth-inhibitory concentrations (8 μM) and above, LB, 37 °C, three independent replicates
  membrane depolarisation (DiSC3(5) fluorescence): very low compared to that of the positive control KLA-1
B. subtilis 168 [2]; growth-inhibitory concentrations (8–12 μM)
  time until membrane potential was restored almost to control levels: ≤ 10 min
Human cells
  toxicity towards human cells: not toxic towards human cells
B. subtilis 168/DSM402
  MIC: 8 µM (≈ 7.91 µg/mL)
B. subtilis 168/DSM 402 [3]
  induction factor of protein AcsA: 3.7
  induction factor of protein CitZ: 3.5
  induction factor of protein ClpC: 5.4
  induction factor of protein ClpP: 4.8
  induction factor of protein DltA: 4.2
  induction factor of protein Dps: 5.2
  induction factor of protein FbaA: 2.9
  induction factor of protein FosB: 8.3
  induction factor of protein GroEL: 3.9
  induction factor of protein GsiB: 8.4
  induction factor of protein GtaB: 3.2
  induction factor of protein IspH: 19.0
  induction factor of protein LiaH: 16.6
  induction factor of protein LuxS: 3.4
  induction factor of protein MinD: 3.1
  induction factor of protein NadE: 11.0
  induction factor of protein NfrA: 5.7
  induction factor of protein OhrB: 4.4
  induction factor of protein PepF: 3.6
  induction factor of protein PspA: 9.5
  induction factor of protein PurH: 3.4
  induction factor of protein RacX: 12.0
  induction factor of protein SalA: 3.5
  induction factor of protein SodA: 3.0
  induction factor of protein SpoVG: 2.4
  induction factor of protein TpiA: 5.8
  induction factor of protein Tpx: 4.1
  induction factor of protein YceC: 9.9
  induction factor of protein YdaG: 5.6
  induction factor of protein YdbD: 19.4
  induction factor of protein YfhM: 5.8
  induction factor of protein YjdA: 3.4
  induction factor of protein YkaA: 4.6
  induction factor of protein YoxD: 7.1
  induction factor of protein YpuA: 4.0
  induction factor of protein YqiW: 2.4
  induction factor of protein YqkF: 7.7
  induction factor of protein YthP: 5.9
  induction factor of protein YvlB: 9.0
  induction factor of protein YvyD: 6.2
  induction factor of protein YwjI: 6.4
  induction factor of protein YwrO: 4.3
B. subtilis HB5343
  MIC: 6 µM (≈ 5.93 µg/mL)
B. subtilis SDB206
  MIC: 6 µM (≈ 5.93 µg/mL)
B. subtilis 168 [4]
  MIC: 6 µM (≈ 5.93 µg/mL)
[5]
  lysis triggered by cWFW in the absence of major autolysins LytCDEF: fully abolished
B. subtilis 168/DSM 402 [6]
  change in cellular K+ content: accumulation of K^+
  leakage of cellular ions: no leakage of cellular ions was observed
B. subtilis 168 [7]; 6 μM, time-resolved laurdan GP
  time until reduction of membrane fluidity reaches a steady state: ≤ 2 min
B. subtilis 168 [7]; 10 min incubation with increasing concentrations, high GP = low membrane fluidity, three replicates
  change of laurdan generalised polarisation (GP) in cells: clear concentration-dependent increase in laurdan generalised polarisation (GP)
